# Test results published in patent publication US10258602B2 (Ocera Therapeutics, Inc., priority 2007, dated 2019).
# Test system: not listed separately
# Assay: Pharmacokinetic analysis (oral bioavailability, elimination half-life) in the rat
# Type: in vivo
# Details: oral administration, 8 mg/kg dose, HPLC-MS
# Excerpt: D. Pharmacokinetic Analysis of Representative Compounds of the Invention
# The pharmacokinetic behavior of compound of the invention can be ascertained by methods well known to those skilled in the art. (Wilkinson, G. R. “Pharmacokinetics: The Dynamics of Drug Absorption, Distribution, and Elimination” in Goodman & Gilman's The Pharmacological Basis of Therapeutics, Tenth Edition, Hardman, J. G.; Limbird, L. E., Eds., McGraw Hill, Columbus, Ohio, 2001, Chapter 1.) The following method was used to investigate the pharmacokinetic parameters (elimination half-life, total plasma clearance, etc.) for intravenous, subcutaneous and oral administration of compounds of the present invention. See also U.S. patent application Ser. No. 11/149,512 and Ser. No. 11/149,731 and Intl. Pat. Appl. No. PCT/US2007/017905.
# The table below presents oral bioavailability and elimination half-life data in the rat for representative compounds of the present invention. The parameters were determined by HPLC-MS after oral administration of an 8 mg/kg dose of the compound, except for compound 822 where a 2 mg/kg dose was used.
Compound,"Elimination Half-life (t1/2, rat, min) [min]","Oral Bioavailability (rat, % F) [% F]"
C[C@@H]1CN[C@@H](C2CC2)C(=O)N(C)[C@H](C)C(=O)N[C@H](Cc2ccc(F)cc2)C(=O)NCCCc2ncccc2O1 [Compound 1027],46,6
C[C@@H]1CN[C@@H](C2CC2)C(=O)N(C)[C@H](C)C(=O)N[C@H](Cc2ccc(F)cc2)C(=O)N[C@@H](C)CCc2ccccc2O1 [Compound 1011],268,22
C[C@@H]1CN[C@@H](C2CC2)C(=O)N(C)[C@H](C)C(=O)N[C@H](Cc2ccc(O)cc2)C(=O)N(C)CCCc2ccccc2O1 [Compound 1069],128,32
C[C@@H]1CN[C@@H](C2CC2)C(=O)N(C)[C@H](C)C(=O)N[C@H](Cc2ccc(Cl)cc2)C(=O)NCCCc2ccccc2O1 [Compound 862],77,22
C[C@@H]1CN[C@@H](C2CC2)C(=O)N(C)[C@H](C)C(=O)N[C@H](Cc2ccc(F)cc2)C(=O)NCCCc2cccc(F)c2O1 [Compound 935],42,11
CC(C)C[C@H]1NC(=O)[C@@H](C)N(C)C(=O)[C@H](C2CC2)NC[C@@H](C)Oc2cccnc2CCCNC1=O [Compound 999],122,9
CC(C)C[C@H]1NC(=O)[C@@H](C)N(C)C(=O)[C@H](C2CC2)NC[C@@H](C)Oc2c(F)cccc2CCCNC1=O [Compound 979],34,11
C[C@@H]1CN[C@@H](C2CC2)C(=O)N(C)[C@H](C)C(=O)N[C@H](Cc2ccc(O)cc2)C(=O)NCCCc2ccccc2O1 [Compound 989],138,7
C[C@@H]1CN[C@@H](C2CC2)C(=O)N(C)[C@H](C)C(=O)N[C@H](Cc2ccc(F)cc2)C(=O)NCCCc2ccc(F)cc2O1 [Compound 854],223,22

# Molecular target: human growth hormone secretagogue receptor (hGHS-R1a) (Homo sapiens, UniProt Q92847)
# Sequence (Q92847 whole entry): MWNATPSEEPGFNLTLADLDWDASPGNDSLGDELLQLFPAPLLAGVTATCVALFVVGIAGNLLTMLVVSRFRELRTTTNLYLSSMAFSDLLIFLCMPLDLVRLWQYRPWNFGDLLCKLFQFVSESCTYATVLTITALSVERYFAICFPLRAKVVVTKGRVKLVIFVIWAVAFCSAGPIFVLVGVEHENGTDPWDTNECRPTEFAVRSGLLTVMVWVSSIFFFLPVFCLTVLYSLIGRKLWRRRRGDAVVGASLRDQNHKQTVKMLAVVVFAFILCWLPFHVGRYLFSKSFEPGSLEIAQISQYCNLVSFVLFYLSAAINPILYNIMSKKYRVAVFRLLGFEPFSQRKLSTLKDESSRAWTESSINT
# Assay: Competitive radioligand binding assay (ghrelin receptor), standard method A
# Details: not given
# Excerpt: A competitive binding assay at the human growth hormone secretagogue receptor (hGHS-R1a) can be carried out analogously to assays described in the literature. (Bednarek, M. A.; et al. J. Med. Chem. 2000, 43, 4370-4376; Palucki, B. L.; et al. Bioorg. Med. Chem. Lett. […], 11, 1955-1957.) See also U.S. patent application Ser. Nos. 11/149,512 and 11/149,731. Binding activity at the gherlin receptor for representative compounds of the present invention is shown in the Examples below.
row,Compound,Ki [nM]
1,CCC(C)[C@@H]1NCC(C)(C)Oc2ccccc2CCCNC(=O)[C@@H](Cc2ccccc2)NC(=O)[C@@H](C)N(C)C1=O (stereo partly drawn) [Compound 923],≤ 100

# Same assay, conditions: binding activity at the human ghrelin receptor, standard method A
row,Compound,Ki [nM]
1,C[C@@H]1CN[C@@H](C2CC2)C(=O)N(C)[C@H](C)C(=O)N[C@H](Cc2ccc(F)cc2)C(=O)NCCCc2ncccc2O1 [Compound 1027],≤ 100
2,C[C@@H]1CN[C@@H](C2CC2)C(=O)N(C)[C@H](C)C(=O)N[C@H](Cc2ccc(F)cc2)C(=O)N[C@@H](C)CCc2ccccc2O1 [Compound 1011],≤ 10
3,C[C@@H]1CN[C@@H](C2CC2)C(=O)N(C)[C@H](C)C(=O)N[C@H](Cc2ccc(O)cc2)C(=O)N(C)CCCc2ccccc2O1 [Compound 1069],≤ 100
4,C[C@@H]1CN[C@@H](C2CC2)C(=O)N(C)[C@H](C)C(=O)N[C@H](Cc2c(F)c(F)c(F)c(F)c2F)C(=O)NCCCc2ccccc2O1 [Compound 1042],≤ 100
5,C[C@@H]1CN[C@@H](C2CC2)C(=O)N(C)[C@H](C)C(=O)N[C@H]([C@H](C)O)C(=O)NCCCc2ccccc2O1 [Compound 1050],> 500
6,C[C@@H]1C(=O)N[C@H](Cc2cccc(Cl)c2)C(=O)NCCCc2ccccc2OCCN[C@@H](C2CC2)C(=O)N1C [Compound 873],≤ 100
7,CC[C@H](C)[C@@H]1NC[C@@H](C)Oc2cccnc2CCCNC(=O)[C@@H](Cc2ccccc2)NC(=O)[C@@H](C)N(C)C1=O [Compound 1030],≤ 100
8,C[C@@H]1CN[C@@H](C2CC2)C(=O)N(C)[C@H](C)C(=O)N[C@H](Cc2ccccc2)C(=O)NCCCc2ccc(F)cc2O1 [Compound 876],≤ 100
9,C[C@@H]1C(=O)N[C@H](Cc2ccc(F)cc2)C(=O)NCCCc2cccc3c2OC(CC3)CN[C@@H](C2CC2)C(=O)N1C (stereo partly drawn) [Compound 946],≤ 10
10,C[C@@H]1CN[C@@H](C2CC2)C(=O)N(C)[C@H](C)C(=O)N[C@H](Cc2ccc(Cl)cc2Cl)C(=O)NCCCc2ccccc2O1 [Compound 1039],≤ 100
11,C[C@@H]1CN[C@@H](C2CC2)C(=O)N(C)[C@H](C)C(=O)N[C@H](Cc2ccc(Cl)cc2)C(=O)NCCCc2ccccc2O1 [Compound 862],≤ 10
12,C[C@@H]1CN[C@@H](C2CC2)C(=O)N(C)[C@H](C)C(=O)N[C@H]([C@@H](C)c2ccc(O)cc2)C(=O)NCCCc2ncccc2O1 [Compound 1082],≤ 500
13,CC(=O)Oc1ccc(CC2NC(=O)C(C)N(C)C(=O)C(C3CC3)NCC(C)Oc3ccccc3CCCNC2=O)cc1F (mixture of isomers) [Compound 1065],≤ 100
14,CCC[C@@H]1NC[C@H](C)Oc2ccccc2CCCNC(=O)[C@@H](Cc2ccccc2)NC(=O)[C@@H](C)N(C)C1=O [Compound 859],≤ 500
15,CC[C@H](C)[C@@H]1NC[C@@H](C)Oc2c(F)cccc2CCCNC(=O)[C@@H](Cc2ccc(O)cc2)NC(=O)[C@@H](C)N(C)C1=O [Compound 994],≤ 100
16,CC[C@H](C)[C@@H]1NCCOc2cccnc2CCCNC(=O)[C@@H](CC(C)C)NC(=O)[C@@H](C)N(C)C1=O [Compound 987],≤ 500
17,CC1CNC(C2CCCCC2)C(=O)N(C)C(C)C(=O)NC(Cc2ccc(O)cc2)C(=O)NCCCc2ccccc2O1 (stereo not drawn) [Compound 1108],≤ 1
18,CC(C)C[C@H]1NC(=O)[C@@H](C)N(C)C(=O)[C@H](C2CC2)NCCOc2ccccc2CC[C@H](C)NC1=O [Compound 1084],≤ 100
19,C[C@@H]1CN[C@@H](C2CC2)C(=O)N(C)[C@H](C)C(=O)N[C@H](C2CCCCC2)C(=O)NCCCc2ccccc2O1 [Compound 1046],≤ 100
20,C[C@@H]1CN[C@@H](C2CC2)C(=O)N(C)[C@H](C)C(=O)N[C@H](Cc2ccc(Cl)cc2)C(=O)NCCCc2c(F)cccc2O1 [Compound 938],≤ 100
21,C[C@@H]1C(=O)N[C@H](Cc2ccccc2Cl)C(=O)NCCCc2ccccc2OCCN[C@@H](C2CC2)C(=O)N1C [Compound 872],≤ 10

row,Compound,Ki [nM]
1,C[C@@H]1CN[C@@H](C2CC2)C(=O)N(C)[C@H](C)C(=O)N[C@H](CC(=O)O)C(=O)NCCCc2ccccc2O1 [Compound 1036],> 500
2,C[C@@H]1C(=O)N[C@H](Cc2ccc(F)cc2)C(=O)NCCCc2ccc(F)c(F)c2OCCN[C@@H](C2CC2)C(=O)N1C [Compound 1100],≤ 10
3,C[C@@H]1CN[C@@H](C2CC2)C(=O)N(C)[C@H](C)C(=O)N[C@H](Cc2ccc(F)cc2)C(=O)NCCCc2cccc(F)c2O1 [Compound 935],≤ 100
4,CC(C)C[C@H]1NC(=O)[C@@H](C)N(C)C(=O)[C@H](C2CC2)NC[C@@H](C)Oc2c(Cl)cccc2CCCNC1=O [Compound 1006],≤ 500
5,CC(C)C[C@H]1NC(=O)[C@@H](C)N(C)C(=O)[C@H](C2CC2)NC[C@@H](C)Oc2c(F)cccc2CCCNC1=O [Compound 979],≤ 100
6,C[C@@H]1CN[C@@H](C2CC2)C(=O)N(C)[C@H](C)C(=O)N[C@H](Cc2ccc(O)cc2)C(=O)NCCCc2ccccc2O1 [Compound 989],≤ 100
7,CC1C(=O)NC(Cc2ccc(O)cc2)C(=O)NCCCc2ccc(F)cc2OCCNC(C2CCCCC2)C(=O)N1C (stereo not drawn) [Compound 1113],≤ 1
8,CC[C@H](C)[C@@H]1NC[C@@H](C)Oc2ccccc2CCCNC(=O)[C@@H](Cc2ccncc2)NC(=O)[C@@H](C)N(C)C1=O [Compound 978],≤ 100
9,C[C@@H]1CN[C@@H](C2CC2)C(=O)N(C)[C@H](C)C(=O)N[C@H](Cc2ccncc2)C(=O)NCCCc2ccccc2O1 [Compound 977],≤ 500
10,CC1C(=O)NC(Cc2ccc(O)cc2)C(=O)NCCCc2c(F)cccc2OCCNC(C2CC2)C(=O)N1C (stereo not drawn) [Compound 1110],≤ 100
11,C[C@@H]1CN[C@@H](C2CC2)C(=O)N(C)[C@H](C)C(=O)N[C@H](Cc2ccc(F)cc2)C(=O)NCCCc2ccc(F)cc2O1 [Compound 854],≤ 100
12,COc1ccc(C[C@H]2NC(=O)[C@@H](C)N(C)C(=O)[C@H](C3CC3)NC[C@@H](C)Oc3ccccc3CCCNC2=O)cc1 [Compound 867],≤ 100
13,C[C@@H]1C(=O)N[C@H](Cc2ccc(O)cc2)C(=O)NCCCc2ncccc2OCCN[C@@H](C2CC2)C(=O)N1C [Compound 988],≤ 100
14,CC(C)[C@@H]1NC[C@H](C)Oc2ccccc2CCCNC(=O)[C@@H](Cc2ccccc2)NC(=O)[C@@H](C)N(C)C1=O [Compound 870],≤ 500
15,CC(C)[C@@H]1CN[C@@H](C2CC2)C(=O)N(C)[C@H](C)C(=O)N[C@H](Cc2ccc(Cl)cc2)C(=O)NCCCc2ccc(F)cc2O1 [Compound 966],≤ 500
16,C[C@@H]1CN[C@@H](C2CC2)C(=O)N(C)[C@H](C)C(=O)N[C@H](Cc2cc(F)c(F)c(F)c2)C(=O)NCCCc2ccccc2O1 [Compound 1041],≤ 100
17,C[C@@H]1CN[C@@H](C2CC2)C(=O)N(C)[C@H](C)C(=O)N[C@H](Cc2ccccc2)C(=O)NCCCc2ccccc2O1 [Compound 851],≤ 100
18,CC[C@H](C)[C@@H]1NC[C@@H](C)Oc2cccnc2CCCNC(=O)[C@@H](Cc2ccc(O)cc2)NC(=O)[C@@H](C)N(C)C1=O [Compound 1026],≤ 100
19,CC[C@H](C)[C@@H]1NCCOc2ccccc2CCCNC(=O)[C@@H](Cc2ccccc2)NC(=O)[C@@H](CF)N(C)C1=O [Compound 954],≤ 500
20,CC1CNC(C2CC2)C(=O)N(C)C(C)C(=O)NC(CC2CCCC2)C(=O)NCCCc2ccccc2O1 (mixture of isomers) [Compound 1047],≤ 100
